Here are results for two molecules from patent publication US9012459B2, “Monohydrate crystalline form of 3-(5-(4-(3-fluoropropyl)-piperazin-1-yl)benzimidazol-2-yl)-1-azaazulen-2-one, preparation, and pharmaceutical composition thereof” (Industrial Technology Research Institute, priority 2012, dated 2015).

Data set [1] is described as follows: hygroscopicity test (weight gain). The format is physicochemical. To be noted: for Weight gain (%): 1 day, temperature 22.5/21.8 ° C., relative humidity 70/71 %; for hygroscopicity: Hydroscopicity test. As to the method:
The monohydrate form of Formula I (300 mg) was dissolved at room temperature in the mix solution of CH2Cl2 (50 mL) and methanol (50 mL). Na2SO4 (10 g) was then added into the solution to absorb water with stir for 2 hours.

A short description of data set [2]: pharmacokinetics profile and bioavailability, PO dosing. The data set is classed as in vivo. To be noted: PO 30 mg/kg, male SD rat; monohydrate in capsule and in 0.5% methyl cellulose suspension, sample #4 in 0.5% methyl cellulose. The protocol: The pharmacokinetics profile and the bioavailability were tested by a PO (per os) dosing with 30 mg/kg of sample of Example 1 (monohydrate), good in capsule (Tropac, 9el) and in bottle (0.5% methyl cellulose suspension) for male SD rat; and also a PO dosing with 30 mg/kg of sample #4 (mixed crystalline form) in 0.5% methyl cellulose for male SD rat as a treatment control. With the result from the above testing, the preferable PO dosing for first in human model was determined.
Generally, the PK profile of the crystalline form with good crystallinity and stability would be worse than that of amorphous form and complex form.
The terms used in FIG. 10 were listed as follows, PO (per os) represents taken by mouth; Cmax (ng/mL) represents the peak plasma concentration of a drug after administration; Tmax (hr) represents the time to reach Cmax; T1/2 (hr) represents elimination half-life, which represents the time required for the concentration of the drug to reach half of its original value; and AUC (hr*ng/mL) [area under the curve] represents the integral of the concentration-time curve (after a single dose or in steady state), and the bioavailability could be deducted from AUC values.

A short description of data set [3]: stability test (XRPD and HPLC over time). The data set is classed as physicochemical. To be noted: about 25-30° C. and 40%-45% RH; after preparation, one, two and four months. The protocol:
An appropriate amount of samples were prepared according to the method of Example 1. A XPRD analysis and a HPLC analysis were performed, under the environment of about 25-30° C. and 40%-45% RH, after the preparation of the samples (FIGS. 7a and 8a), and after one month (FIGS. 7b and 8b), two months (FIGS. 7c and 8c), and four months (FIGS. 7d and 8d) respectively from the time of preparation, and the results were examined to observe their differences over time.

Data set [4] is described as follows: stability examination by slurry test (XRPD). The format is physicochemical. To be noted: stirred at 25° C. for 3 days in ethyl acetate, heptanes or isopropanol. The protocol:
1. Formula I-EA: the monohydrate form of Formula I (57 mg) and Ethyl acetate (1 mL) was provided.
2. Formula I-Heptane: the monohydrate form of Formula I (51 mg) and Heptanes (1 mL) was provided: […]
3. Formula I-IPA: the monohydrate form of Formula I (53 mg) and 1 mL of Isopropanol (1 mL) was provided.
The solutions provided above were stirred at 25° C. for 3 days and then a centrifugation was performed to collect the solid with centrifuge in each. Each of the collected solids was dried and analyzed using XPRD. […] This is a pre-test for the subsequent formulation, which is aimed to confirm that the monohydrate form wouldn't change with the incorporation of solvents. Therefore, the solvents used herein may not be the same as those crystallized solvents used in the embodiments.

The nature of data set [5]: solubility in different pH buffer solutions (HPLC). The data set is classed as physicochemical. To be noted: buffer solution, thermodynamic from solid, read-out: Concentration (solubility).

Each structure is given as a SMILES string. Where two headings read alike, the source gives them in different places.

Turning to `O=c1[nH]c2cccccc-2c1-c1nc2ccc(N3CCN(CCCF)CC3)cc2[nH]1` [monohydrate form of Formula I, 3-(5-(4-(3-fluoropropyl)piperazin-1-yl)benzimidazol-2-yl)-1-azaazulen-2-one], the “Weight gain (%)” value in data set [1] was 1.57%. This molecule also had a hygroscopicity in data set [1] of 1.57%. Also, in data set [2], the “PK profile (Cmax, Tmax, T1/2, AUC) compared between the 3 treatments” value is “no statistically significant difference”. Besides, the “stability (XRPD and HPLC differences over time)” value in data set [3] is “stable and substantially the same over four months”. In addition, in data set [4], the “crystalline form stability in slurry (XRPD vs original form)” value is “stable”. Moreover, the solubility at 24 h was 26300 µg/mL in data set [5] (pH 1.2, simulated gastric fluid, buffer pH1.2, 300 rpm); 263 µg/mL in data set [5] (pH 5, aqueous buffer, buffer pH5, 300 rpm); 3.7 µg/mL in data set [5] (pH 6.8, aqueous buffer, buffer pH6.8, 300 rpm); 2.4 µg/mL in data set [5] (pH 7.4, aqueous buffer, buffer pH7.4, 300 rpm).
As to `O=c1[nH]c2cccccc-2c1-c1nc2ccc(N3CCN(CCCF)CC3)cc2[nH]1` [anhydrate form, 3-(5-(4-(3-fluoropropyl)piperazin-1-yl)benzimidazol-2-yl)-1-azaazulen-2-one], in data set [1], the “Weight gain (%)” value turned out to be 3.81% and the hygroscopicity worked out at 3.81%.
